Where two headings read alike, the source gives them in different places.

The values below come from patent US20120165559A1, “Compounds Having a Physiological Effect” (priority 2009, published 2012).

The test system of one data set is panel of flavor experts. The experiment in a line: Comparative evaluation of enantiomers 1′ and 1″ and the racemic mixture by a panel of flavor experts. The data set is classed as in vivo. The settings on record: enantiomers taken separately versus each other and versus the racemic mixture. An excerpt:
The enantiopure compounds 1′ and 1″ obtained in examples 21 and 22 and also the racemic mixture of compound 1 obtained in example 2 were subjected to a panel of flavor experts for a comparative evaluation of the organoleptic and physiological qualities.

The subject of data set [1] is skin and the mucous membranes, particularly of the mouth, of the nasal fossa and of the throat. The experiment in a line: Organoleptic and physiological qualities of the compounds, noted by the inventors and flavor experts. The data set is classed as in vivo. The settings on record: for Organoleptic qualities: Tables I-V. An excerpt:
The invention is based on the following observation, made by the inventors and backed up by flavor experts, that the physiological effects of N-ethyl-2-(2-isopropyl-5-methylcyclohexyl)acetamide: As mentioned above, the compounds of general formula (I) according to the invention have particular physiological effects. They cause a cool and/or warm sensation on the skin and the mucous membranes, particularly of the mouth, of the nasal fossa and of the throat. Some of these amides cause a more or less intense refreshing physiological effect giving the foods to which they are added a sensation of freshness, whereas others cause a warming physiological effect. Some of them can also cause other physiological effects, such as tingling or a piquant-burning physiological effect characteristic of substances that activate the trigeminal nerve, therefore giving the foods to which they are added a spicy sensation.

Data set [2] has the same test system. The following applies: known from WO 2007/089252; cited from earlier work.
Data set [3] relates to panelists / flavor experts. In words: Evaluation in mineral water. The data set is classed as in vivo. As for the experimental part: The molecule was evaluated in mineral water at a dosage of 30 ppm. […] The evaluation of the organoleptic properties of compound 10 was carried out in mineral water at a concentration of 1 ppm.
The next data set has as its system panel of tasters. The experiment in a line: Flavorings for oro-dental hygiene (mouthwashes, toothpaste). The data set is classed as in vivo. The following applies: alcoholic mouthwash, nonalcoholic mouthwash and toothpaste. As for the experimental part: Compound 10 was tested in various applications: in an alcoholic mouthwash and a nonalcoholic mouthwash and in toothpaste. […] This molecule is very advantageous since it provides a tingling sensation on the edge of the tongue, which is piquant like a capsicum, and salivating. [table] Dosage of flavoring 0.2% Dosage of flavoring 0.2% Dosage of flavoring 1%

Data set [4] deals with panelists. The experiment in a line: Curry/capsicum flavoring evaluated in crackers. The data set is classed as in vivo. The following applies: flavoring in crackers at 5% (final dosage 500 ppm). From the text:
Compound 10 was subsequently tested in a curry/capsicum flavoring and evaluated in crackers at 5% (final dosage: 500 ppm). [table]

In data set [5] the test system is panelists. In words: Citrus fruit flavoring in fatty filling. The class given is in vivo. The settings on record: 10% in a citrus fruit flavoring, flavoring at 0.3% in fatty filling. As for the experimental part:
The molecule was tested at 10% in a citrus fruit flavoring, the flavoring obtained was at a dose of 0.3% in fatty filling.

Data set [6] concerns panelists. The experiment in a line: Mint flavoring evaluated in fondant. The class given is in vivo. The settings on record: in a mint flavoring, dosage of 50 ppm. As to the method: The molecule was tested in a mint flavoring and evaluated in fondant at a dosage of 50 ppm.

On to `C=C(C)[C@H]1CC[C@H](C)C[C@H]1CC(=O)NC` [Compound 1′, N-methylamide of (1′S,2′S,5′S)-2-[(2′-isopropenyl-5′-methyl)cyclohex-1-yl]acetic acid], for which the “difference in perception threshold and intensity of the refreshing effect felt” value in the data set on panel of flavor experts is listed as “did not make it possible to demonstrate any notable difference”. For `CC(C)CNC(=O)CC1CC(C)CCC1C(C)C` (stereo not shown) [Compound 2, N-isobutyl-2-(2-isopropyl-5-methylcyclohexyl)acetamide], the Organoleptic qualities result in data set [1] is “Refreshing and tingling”. On the same count and under the same terms, as for `C=C(C)C1CCC(C)CC1CC(=O)NC` (stereo not shown) [Compound 15, 2-(2-isopropenyl-5-methylcyclohexyl)-N-methylacetamide], the entry is “Refreshing”. `CCNC(=O)CC1CC(C)CCC1C(C)C` (stereo not shown) [N-ethyl-2-(2-isopropyl-5-methylcyclohexyl)acetamide]: in data set [2], the physiological effect result is recorded as “refreshing agent”.

As to `COc1cc(CNC(=O)CC2CC(C)CCC2C(C)C)ccc1O` (stereo not shown) [Compound 10, N-(4-hydroxy-3-methoxybenzyl)-2-(2-isopropyl-5-methylcyclohexyl)acetamide], the sensation felt result was “burning and salivation sensation which comes immediately after depositing on the tongue” in data set [3] (concentration of 1 ppm); “piquant and warming sensation” with panel of tasters. Besides, the duration of sensation result in the data set on panelists [4] is reported as “more longlasting sensation”. Further, the physiological effect result in data set [1] is reported as “strong piquant-burning physiological effect”. For the same compound, the Organoleptic qualities entry in data set [1] was “Warm and piquant like pepper, with a salivating effect”.

As to `C=C(C)C1CCC(C)CC1CC(=O)NCc1ccc(O)c(OC)c1` (stereo not shown) [Compound 16, N-(4-hydroxy-3-methoxybenzyl)-2-(2-isopropenyl-5-methylcyclohexyl)acetamide], the Organoleptic qualities result in data set [1] is on record as “Powerful piquant with delayed effect, salivating, slightly woody”. Still for that read-out and setting: in the case of `CNC(=O)CC(C)C1CC(C)CCC1C(C)C` (stereo not shown) [Compound 9, 3-(2-isopropyl-5-methylcyclohexyl)-N-methylbutyramide] it was “Cool”.

`CNC(=O)C(C)C1CC(C)CCC1C(C)C` (stereo not shown) [Compound 8, 2-(2-isopropyl-5-methylcyclohexyl)-N-methylpropionamide]: the Organoleptic qualities entry in [1] is reported as “Piquant, slight”.

Turning to `CC1CCC(C(C)C)C(CC(=O)Nc2ccc(CC#N)cc2)C1` (stereo not shown) [Compound 13, N-(4-cyanomethylphenyl)-2-(2-isopropyl-5-methylcyclohexyl)acetamide], the Organoleptic qualities result in [1] is “Warm”. The same measure, in the same setting: as for `CC(=O)OCCNC(=O)CC1CC(C)CCC1C(C)C` (stereo not shown) [Compound 5, [2-(2-isopropyl-5-methylcyclohexyl)acetylamino]ethyl acetate], the entry is “Persistent mentholated”. The same measure, in the same setting: as for `CNC(=O)C=C1CC(C)CCC1C(C)C` (stereo not shown) [Compound 18, 2-(2-isopropyl-5-methylcyclohexylidene)-N-methylacetamide], the entry is “Refreshing”; as for `CC1CCC(C(C)C)C(CC(=O)NCCO)C1` (stereo not shown) [Compound 6, N-(2-hydroxyethyl)-2-(2-isopropyl-5-methylcyclohexyl)acetamide], “Refreshing and tingling,”. With `COC(=O)c1ccccc1NC(=O)CC1CC(C)CCC1C(C)C` (stereo not shown) [Compound 11, N-(2-methyloxycarbonylphenyl)-2-(2-isopropyl-5-methylcyclohexyl)acetamide], in data set [1], the physiological effect entry is recorded as “notable warming physiological effect, devoid of the piquant-burning aspect” and the Organoleptic qualities result was “Warm”.

For `CNC(=O)CC1CC(C)CCC1C(C)C` (racemic) [Compound 1, N-methyl-2-(2-isopropyl-5-methylcyclohexyl)acetamide], in data set [3] (dosage of 30 ppm), the “aromatic note of the drink” value is recorded as “minty, pine, liquoricy, warming, piquant, salivating” and the sensation felt entry is “freshness which came very rapidly after swallowing”. In addition, the sensation perceived entry in the data set on panelists [5] was “persistent freshness, and a change in the lemon profile”. Further, in the data set with panelists [6], the sensation perceived entry is “intense freshness which lasts for a few minutes”. The “effectiveness as refreshing agent, in terms of intensity and of perception threshold” value in [1] (comparative study among the refreshing agents 1, 19, 15, 17, 18, 8, 9) was “the most effective”. As for `CNC(=O)CC1C=C(C)CCC1C(C)C` (stereo not shown) [Compound 19, 2-(6-isopropyl-3-methylcyclohex-2-enyl)-N-methylacetamide], in data set [1], the Organoleptic qualities entry is reported as “Refreshing with a delayed”. Still for that read-out and setting: as for `CC1CCC(C(C)C)C(CC(=O)NCc2ccc3c(c2)OCO3)C1` (stereo not shown) [Compound 14, N-benzo[1,3]dioxol-5-ylmethyl-2-(2-isopropyl-5-methylcyclohexyl)acetamide], the entry is “Warm and cold at the back of the throat, with a vanilla note”. Regarding `C=C(C)[C@@H]1CC[C@@H](C)C[C@@H]1CC(=O)NC` [Compound 1″, N-methylamide of (1′R,2′R,5′R)-2-[(2′-isopropenyl-5′-methyl)cyclohex-1-yl]acetic acid], the “difference in perception threshold and intensity of the refreshing effect felt” value in the data set on panel of flavor experts is given as “did not make it possible to demonstrate any notable difference”. One may read the melting point as the temperature, or range, at which the solid turns liquid. Compound `CNC(=O)CC1=C(C(C)C)CCC(C)C1` (stereo not shown) [Compound 17, 2-(2-isopropyl-5-methylcyclohex-1-enyl)-N-methylacetamide] came in with a melting point of 82 °C. Also, the Organoleptic qualities entry in data set [1] is recorded as “Refreshing”. Turning to `CC1CCC(C(C)C)C(CC(=O)NCC(=O)O)C1` (stereo not shown) [Compound 3, [2-(2-isopropyl-5-methylcyclohexyl)acetylamino]acetatic acid], the Organoleptic qualities entry in [1] is recorded as “Warm”. On the same count and under the same terms, as for `CC1CCC(C(C)C)C(CC(=O)Nc2ccc(C#N)cc2)C1` (stereo not shown) [Compound 12, N-(4-cyanophenyl)-2-(2-isopropyl-5-methylcyclohexyl)acetamide], the entry is “Warm”; as for `CC1CCC(C(C)C)C(CC(=O)NCC(C)(C)O)C1` (stereo not shown) [Compound 7, N-(2-hydroxy-2-methylpropyl)-2-(2-isopropyl-5-methylcyclohexyl)acetamide], “Woody, piquant, and cold,”.
